Measured values as given in patent US9173391B2, “Crystalline complexes of 4-hydroxy benzoic acid and selected pesticides” (BASF SE, priority 2009, dated 2015).
≈ marks a conversion by molar mass, not a printed value.

Assay: physchem
Settings: water, thermodynamic from solid

C/C(=N\C#N)N(C)Cc1ccc(Cl)nc1 [crystalline acetamiprid, acetamiprid]
solubility at 24 h: 2750 µg/mL (≈ 12.3 mM)
